According to ChEMBL document CHEMBL1201862, “PubChem BioAssay data set” (2004):
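Assay format: 96-well plates, 48-hour exposure. GI50: concentration for 50% inhibition of growth.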 Active and inactive are the calls of the source. Cut-off read from the data, not from the text of the source: active = GI50 up to about 1.1 µM and inactive = higher. Residues, ends and D or L forms follow the SMILES beside them. *: point of attachment. Ethyl(2-NMe3+) = C[N+](C)(C)CC*; Boc = CC(C)(C)OC(=O)*

What was measured:
Assay in all cases: growth of human tumour cells (NCI), 48 h
[1] = system: OVCAR-4
[2] = system: K562
[3] = system: SW-620
[4] = system: SK-OV-3
[5] = system: CAKI-1
[6] = system: SF-268
[7] = system: DU-145
[8] = system: PC-3
[9] = system: A549
[10] = system: NCI-H226
[11] = system: TK-10
[12] = system: NCI-H522
[13] = system: RXF 393
[14] = system: MDA-N
[15] = system: HCT-15
[16] = system: UACC-62
[17] = system: UACC-257
[18] = system: OVCAR-8
[19] = system: NCI/ADR-RES

Compound	GI50 [1]	GI50 [2]	GI50 [3]	GI50 [4]	GI50 [5]	GI50 [6]	GI50 [7]	GI50 [8]	GI50 [9]	GI50 [10]	GI50 [11]	GI50 [12]	GI50 [13]	GI50 [14]	GI50 [15] [µM]	GI50 [16]	GI50 [17]	GI50 [18]	GI50 [19]
CC(C)Cn1cnc2c(Cl)nc3ccccc3c21	48.3 µM (inactive)	38.4 µM (inactive)	47.3 µM (inactive)	> 100 µM (inactive)	45.8 µM (inactive)	57.3 µM (inactive)	73.8 µM (inactive)	34.4 µM (inactive)	59.4 µM (inactive)	40 µM (inactive)	53.6 µM (inactive)	50.9 µM (inactive)	51.8 µM (inactive)	68.2 µM (inactive)	53.3	40.9 µM (inactive)	> 100 µM (inactive)	58.9 µM (inactive)	61.2 µM (inactive)
CCCCCC/C=C\CCCCCCCCCC1=C(CN2CCN(C)CC2)C(=O)C=C(OC)C1=O	1.76 µM (inactive)	2.24 µM (inactive)	1.59 µM (inactive)	13.2 µM (inactive)	2.73 µM (inactive)	5.61 µM (inactive)	13.4 µM (inactive)	2.37 µM (inactive)	3.83 µM (inactive)	14.2 µM (inactive)	2.92 µM (inactive)	1.55 µM (inactive)	2.29 µM (inactive)	8.05 µM (inactive)	2.47	12.9 µM (inactive)	13.3 µM (inactive)	4.53 µM (inactive)	3.58 µM (inactive)
CC(C)Oc1c(N(Cc2ccccc2)c2ccccc2C2SCCCS2)c(=O)c1=O	9.04 µM (inactive)	4.05 µM (inactive)	2.71 µM (inactive)	3.39 µM (inactive)	5.79 µM (inactive)	5.96 µM (inactive)	4.18 µM (inactive)	3.29 µM (inactive)	5.36 µM (inactive)	6.05 µM (inactive)	8.63 µM (inactive)	1.88 µM (inactive)	4.88 µM (inactive)	3.1 µM (inactive)	3.71	4.89 µM (inactive)	6.9 µM (inactive)	3.61 µM (inactive)	1.75 µM (inactive)
CC1OC(OC2C(O[C@H]3CC[C@@]4(C)C(=CC[C@H]5[C@@H]6C[C@@H]7O[C@]8(CC[C@@H](C)CO8)[C@@H](C)[C@@H]7[C@@]6(C)CC[C@@H]54)C3)OC(CO)C(OC3OC(CO)C(O)C3O)C2O)C(O)C(O)C1O (some centres undefined)	0.931 µM (active)	1.23 µM (inactive)	0.766 µM (active)	0.94 µM (active)	0.867 µM (active)	0.841 µM (active)	0.984 µM (active)	0.776 µM (active)	0.634 µM (active)	0.867 µM (active)	0.989 µM (active)	0.995 µM (active)	0.865 µM (active)	0.752 µM (active)	0.895	0.805 µM (active)	0.908 µM (active)	0.535 µM (active)	0.91 µM (active)
O=C1Nc2ccc(Br)cc2/C1=N/c1ccc2c(c1)OCO2	3.72 µM (inactive)	24.4 µM (inactive)	22.4 µM (inactive)	31.8 µM (inactive)	20.3 µM (inactive)	35.2 µM (inactive)	34 µM (inactive)	16.3 µM (inactive)	46.8 µM (inactive)	24.3 µM (inactive)	27.3 µM (inactive)	19.1 µM (inactive)	20.3 µM (inactive)	15.7 µM (inactive)	19.8	15.7 µM (inactive)	18.3 µM (inactive)	32.5 µM (inactive)	27.5 µM (inactive)
COC(=O)[C@H](Cc1ccccc1)NC(=O)c1ccc(CNC(=O)/C=C/c2csc(-c3ccccc3)n2)cc1	24 µM (inactive)	1.93 µM (inactive)	7.33 µM (inactive)	23.7 µM (inactive)	7.82 µM (inactive)	7.6 µM (inactive)	7.03 µM (inactive)	6.87 µM (inactive)	16.1 µM (inactive)	46 µM (inactive)	19.3 µM (inactive)	3.24 µM (inactive)	8.02 µM (inactive)	4.45 µM (inactive)	7.35	14.6 µM (inactive)	1.93 µM (inactive)	11.1 µM (inactive)	21.2 µM (inactive)
COC(=O)C(Cc1ccc2c(c1)CCCC2)Cc1cc2c(cc1C(O)OC)CCC2 (centres undefined)	80 µM (inactive)	35.1 µM (inactive)	67.1 µM (inactive)	> 100 µM (inactive)	> 100 µM (inactive)	49.9 µM (inactive)	> 100 µM (inactive)	19.5 µM (inactive)	41.5 µM (inactive)	> 100 µM (inactive)	62.2 µM (inactive)	50.1 µM (inactive)	24.3 µM (inactive)	56.8 µM (inactive)	33.7	> 100 µM (inactive)	14.7 µM (inactive)	> 100 µM (inactive)	32.8 µM (inactive)
COc1cccc([C@H]2CC(=O)c3cc4c(cc3N2)OCO4)c1	20.6 µM (inactive)	1.3 µM (inactive)	0.428 µM (active)	0.419 µM (active)	0.384 µM (active)	0.646 µM (active)	0.397 µM (active)	0.275 µM (active)	0.296 µM (active)	0.263 µM (active)	0.979 µM (active)	0.238 µM (active)	0.171 µM (active)	0.0789 µM (active)	0.341	0.406 µM (active)	0.91 µM (active)	0.401 µM (active)	0.296 µM (active)
CC(NC(=O)C(Cc1ccc(OCC[N+](C)(C)C)cc1)NC(=O)OC(C)(C)C)C(=O)NC(Cc1ccccc1)C(=O)NCC(N)=O (centres undefined) (Boc-Y(Ethyl(2-NMe3+))AFG-NH2; configuration not given here)	38.1 µM (inactive)	> 100 µM (inactive)	> 100 µM (inactive)	10 µM (inactive)	87.1 µM (inactive)	10.1 µM (inactive)	36.1 µM (inactive)	> 100 µM (inactive)	36.8 µM (inactive)	22.7 µM (inactive)	11.8 µM (inactive)	36.9 µM (inactive)	11.7 µM (inactive)	> 100 µM (inactive)	> 100	25.9 µM (inactive)	45.2 µM (inactive)	12 µM (inactive)	36.9 µM (inactive)
COc1cccc(C2c3cc4c(cc3OC(C)(N3CCCC3)C2C)OCO4)c1OC (centres undefined)	5.18 µM (inactive)	6.15 µM (inactive)	6.89 µM (inactive)	5.82 µM (inactive)	5.06 µM (inactive)	10.9 µM (inactive)	10 µM (inactive)	5.11 µM (inactive)	5.58 µM (inactive)	14.4 µM (inactive)	13.7 µM (inactive)	13.9 µM (inactive)	14.8 µM (inactive)	10.6 µM (inactive)	4.83	16.9 µM (inactive)	16 µM (inactive)	10.8 µM (inactive)	7.46 µM (inactive)
CCN(CC)c1ccc2cc(-c3nc(O)c4ccccc4n3)c(=N)oc2c1	> 100 µM (inactive)	> 100 µM (inactive)	> 100 µM (inactive)	> 100 µM (inactive)	> 100 µM (inactive)	> 100 µM (inactive)	> 100 µM (inactive)	> 100 µM (inactive)	> 100 µM (inactive)	> 100 µM (inactive)	> 100 µM (inactive)	> 100 µM (inactive)	> 100 µM (inactive)	> 100 µM (inactive)	> 100	> 100 µM (inactive)	> 100 µM (inactive)	> 100 µM (inactive)	> 100 µM (inactive)
